Values of other authors as cited in patent publication US20040259736A1, “Biodegradable solid preparation of a phytopathologicalagent with delayed active substance release” (priority 2001, published 2004).
Converted amounts (≈) assume the structure as drawn.

CN/C(=N\[N+](=O)[O-])NCc1cnc(Cl)s1 [Clothianidin, (E)-1-(2-chlorothiazol-5-ylmethyl)-3-methyl-2-nitroguanidine]
solubility in water: 270 µg/mL (≈ 1080 µM)

CNC(=O)C(=NOC)c1ccccc1CO/N=C(\C)C(=NOC)/C(C)=N/OC [II-4, N-Methyl-2-(methoxyimino)-2-{2-[(3E,6E)-5-(methoxyimino)-4,6-dimethyl-2,8-dioxa-3,7-diazanona-3,6-dien-1-yl]phenyl}-acetamide]
solubility in water: 80 µg/mL (≈ 204 µM)

CNC(=N[N+](=O)[O-])NCC1CCOC1 (stereo not shown) [MTI-446]
solubility in water: 54000 µg/mL (≈ 267000 µM) | solubility in water (in words): freely soluble in water
